Test results reported in US6362369B1, “Phthalic acid diamide derivatives fluorine-containing aniline compounds as starting material, agricultural and horticultural insecticides, and a method for application of the insecticides” (Nihon Nohyaku Co., Ltd., priority 1997, dated 2002).

Legend:
[1] = test system: diamondback moth (Plutella xylostella); test: Insecticidal effect on diamondback moth (Test Example 1); format: in vivo; settings: for Insecticidal effect on diamondback moth (Test Example 1), judged grade: mortality judged according to the criterion shown in Test Example 1; for Insecticidal effect, Test Example 1 / Insecticidal effect (Test Example 1), judged from mortality: diamondback moth; for Insecticidal effect, Test Example 1: mortality judged by criterion of Test Example 1; for Insecticidal effect (Test Example 1), judged from mortality: judged by the criterion of Test Example 1
Method in brief: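 Oviposition by adults on Chinese cabbage seedling; immersion; air-dry; 25° C room. Count of hatched larvae at day 6 post-immersion → mortality → effect graded by criterion. Triplicate, 10 insects/group.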

[2] = test system: common cutworm (Spodoptera Litura); test: Insecticidal effect on common cutworm (Test Example 2); format: in vivo; settings: 500 ppm, 25° C.; for Insecticidal effect on common cutworm (Test Example 2), judged grade / Insecticidal effect (Test Example 2), judged from mortality: cabbage leaf dip; for Insecticidal effect on common cutworm (Test Example 2), judged grade: second-instar larvae; for Insecticidal effect on common cutworm (Test Example 2), judged grade / Insecticidal effect, Test Example 2: eight days after inoculation; for Insecticidal effect, Test Example 2: common cutworm second-instar larvae, cabbage leaf immersed; for Insecticidal effect (Test Example 2), judged from mortality: second-instar larvae of common cutworm, 8 days after inoculation
Description: Insecticidal effect on common cutworm (Spodoptera Litura)
After air-drying, it was placed in a plastic Petri dish with a diameter of 9 cm and inoculated with second-instar larvae of common cutworm, after which the dish was closed and then allowed to stand in a room thermostated at 25° C. Eight days after the inoculation, the dead and alive were counted. The mortality was calculated according to the following equation and the insecticidal effect was judged according to the criterion shown in Test Example 1. The test was carried out with triplicate groups of 10 insects. [formula]

Compound | Insecticidal effect on diamondback moth (Test Example 1), judged grade [1] | Insecticidal effect on common cutworm (Test Example 2), judged grade [2] | Insecticidal effect, Test Example 1 [1] | Insecticidal effect, Test Example 2 [2] | other results
Cc1cc(OC(F)(F)C(F)OC(F)(F)F)ccc1NC(=O)c1c(F)cccc1C(=O)NC(C)C (stereo not shown) [compound 570] | A (100) | A (100) | – | – | –
Cc1cc(OC(F)F)c(Cl)cc1NC(=O)c1c(F)cccc1C(=O)NC(C)C [compound 571] | A (100) | C (89-80) | – | – | –
CC(C)NC(=O)c1c(C(=O)Nc2cccc(Cl)c2Cl)cccc1[N+](=O)[O-] [compound 584] | A (100) | D (79-50) | – | – | –
CC(C)NC(=O)c1c(C(=O)Nc2ccc(Br)cc2)cccc1[N+](=O)[O-] [compound 591] | A (100) | D (79-50) | – | – | –
CC(C)NC(=O)c1c(C(=O)Nc2ccc(Cl)cc2Cl)cccc1[N+](=O)[O-] [compound 633] | A (100) | D (79-50) | – | – | –
CC(C)NC(=O)c1c(C(=O)Nc2c(Cl)cccc2Cl)cccc1[N+](=O)[O-] [compound 635] | A (100) | D (79-50) | – | – | –
CC(C)NC(=O)c1c(C(=O)Nc2c(F)cccc2F)cccc1[N+](=O)[O-] [compound 641] | D (79-50) | D (79-50) | – | – | –
CC(C)NC(=O)c1c(C(=O)Nc2ccc(Cl)c(Cl)c2Cl)cccc1[N+](=O)[O-] [compound 644] | A (100) | A (100) | – | – | –
CC(C)NC(=O)c1c(C(=O)Nc2c(F)c(F)c(F)c(F)c2F)cccc1[N+](=O)[O-] [compound 646] | A (100) | D (79-50) | – | – | –
Cc1cc(Cl)ccc1NC(=O)c1cccc([N+](=O)[O-])c1C(=O)NC(C)C [compound 664, 3-nitro-N^1-(4-chloro-2-methylphenyl)-N^2-isopropyl-phthalic acid diamide] | A (100) | A (100) | – | – | –
CC(C)NC(=O)c1c(C(=O)Nc2ccc(OC(F)F)cc2C(F)(F)F)cccc1[N+](=O)[O-] [compound 692] | A (100) | D (79-50) | – | – | –
CC(C)NC(=O)c1c(C(=O)Nc2ccc(OC(F)F)c(C(F)(F)F)c2)cccc1[N+](=O)[O-] [compound 693] | A (100) | A (100) | – | – | –
Cc1cc([N+](=O)[O-])ccc1NC(=O)c1cccc([N+](=O)[O-])c1C(=O)NC(C)C [compound 706] | A (100) | A (100) | – | – | –
Cc1c(NC(=O)c2cccc([N+](=O)[O-])c2C(=O)NC(C)C)ccc([N+](=O)[O-])c1C [compound 709] | A (100) | A (100) | – | – | –
CSc1ccc(NC(=O)c2cccc([N+](=O)[O-])c2C(=O)NC(C)C)c(C)c1 [compound 719] | A (100) | D (79-50) | – | – | –
Cc1cc(Oc2c(F)c(F)c(F)c(F)c2F)ccc1NC(=O)c1cccc([N+](=O)[O-])c1C(=O)NC(C)C [compound 725] | A (100) | A (100) | – | – | –
Cc1ccc(Cl)cc1NC(=O)c1cccc([N+](=O)[O-])c1C(=O)NCC(C)C [compound 831] | D (79-50) | D (79-50) | – | – | –
Cc1ccc(Cl)cc1NC(=O)c1ccccc1C(=O)NC(C)(C)C [compound 841] | A (100) | D (79-50) | – | – | –
Cc1ccc(Cl)cc1NC(=O)c1cccc([N+](=O)[O-])c1C(=O)NC1CCCC1 [compound 858] | C (89-80) | A (100) | – | – | –
C#CCNC(=O)c1c(C(=O)Nc2cc(Cl)ccc2C)cccc1[N+](=O)[O-] [compound 869] | A (100) | D (79-50) | – | – | –
O=C(Nc1ccc(C(F)(F)F)cc1)c1ccccc1C(=O)N1CCCC1 [compound 881] | A (100) | D (79-50) | – | – | –
Cc1cc(Cl)ccc1NC(=O)c1c(Cl)cccc1C(=O)NC(C)(C)C [compound 938] | A (100) | A (100) | – | – | –

Compound | Insecticidal effect on diamondback moth (Test Example 1), judged grade [1] | Insecticidal effect on common cutworm (Test Example 2), judged grade [2] | Insecticidal effect, Test Example 1 [1] | Insecticidal effect, Test Example 2 [2] | other results
CC(C)NC(=O)c1c(I)cccc1C(=O)Nc1ccc(I)cc1C(C)C [compound 965] | – | – | A (100) | C (89-80) | –
CC(C)(C)NC(=O)c1ccccc1C(=O)Nc1ccc(C(O)(C(F)(F)F)C(F)(F)F)cc1 [compound 1052] | – | – | A (100) | A (100) | –
CC(C)(C)NC(=O)c1c(I)cccc1C(=O)Nc1ccc2c(c1)OC(F)(F)C(F)O2 (stereo not shown) [compound 1166] | – | – | A (100) | A (100) | –
CCN(CC)C(=O)c1c(I)cccc1C(=O)N(CC)c1ccc(C(F)(F)C(F)(F)F)cc1C [compound 1179] | – | – | A (100) | A (100) | –
Cc1cc(OC(F)(F)F)ccc1NC(=O)c1cccc(C(F)(F)F)c1C(=O)NC(C)C [compound 1183] | – | – | A (100) | A (100) | –
Cc1cc(C(F)(F)C(F)(F)F)ccc1NC(=O)c1cccc(C(F)(F)F)c1C(=O)NC(C)C [compound 1184] | – | – | A (100) | A (100) | –
CCN(CC)C(=O)c1c(C(=O)Nc2ccc(OC(F)(F)F)cc2C)cccc1C(F)(F)F [compound 1185] | – | – | A (100) | C (89-80) | –
CCN(CC)C(=O)c1c(C(=O)Nc2ccc(C(F)(F)C(F)(F)F)cc2C)cccc1C(F)(F)F [compound 1186] | – | – | A (100) | A (100) | –
CC(C)NC(=O)c1c(Cl)cccc1C(=O)Nc1ccc(OC(F)(F)F)cc1F [compound 1187] | – | – | A (100) | A (100) | –
CC(C)NC(=O)c1c(I)cccc1C(=O)Nc1ccc(OC(F)(F)F)cc1F [compound 1188] | – | – | A (100) | A (100) | –
CC(C)(C)NC(=O)c1c(I)cccc1C(=O)Nc1ccc(OC(F)(F)F)cc1F [compound 1189] | – | – | A (100) | A (100) | –
Cc1cc(OC(F)(F)F)ccc1NC(=O)c1cccc(OC(F)(F)F)c1C(=O)NC(C)C [compound 1233] | – | – | A (100) | A (100) | –
Cc1cc(OC(F)(F)F)ccc1NC(=O)c1cccc(OC(F)(F)F)c1C(=O)NC(C)(C)C [compound 1234] | – | – | A (100) | A (100) | –
CCN(CC)C(=O)c1c(OC(F)(F)F)cccc1C(=O)Nc1ccc(OC(F)(F)F)cc1C [compound 1235] | – | – | A (100) | D (79-50) | –
Cc1cc(C(F)(C(F)(F)F)C(F)(F)F)ccc1NC(=O)c1cccc(OC(F)(F)F)c1C(=O)NC(C)C [compound 1236] | – | – | A (100) | A (100) | –
Cc1cc(C(F)(C(F)(F)F)C(F)(F)F)ccc1NC(=O)c1cccc(OC(F)(F)F)c1C(=O)NC(C)(C)C [compound 1237] | – | – | A (100) | A (100) | –
Cc1cc(C(F)(F)C(F)(F)F)ccc1NC(=O)c1cccc(C#N)c1C(=O)NC(C)C [compound 1245] | – | – | A (100) | A (100) | –
Cc1cc(C(F)(F)C(F)(F)F)ccc1NC(=O)c1ccc(F)c(Cl)c1C(=O)NC(C)(C)C [compound 1257] | – | – | A (100) | A (100) | –
CCN(CC)C(=O)c1c(C(=O)Nc2ccc(C(F)(F)C(F)(F)F)cc2C)ccc(F)c1Cl [compound 1258] | – | – | A (100) | A (100) | –
CCN(CC)C(=O)c1c(C(=O)Nc2ccc(OC(F)(F)F)cc2C)ccc(F)c1Cl [compound 1261] | – | – | A (100) | A (100) | –
Cc1cc(OC(F)F)ccc1NC(=O)c1cccc(Cl)c1C(=O)N[C@@H](C)c1ccccc1 [compound 1459] | – | – | – | – | Insecticidal effect (Test Example 1), judged from mortality [1]: A (100); Insecticidal effect (Test Example 2), judged from mortality [2]: A (100)
O=C(Nc1ccc(C(F)(F)C(F)(F)F)cc1F)c1cccc(Cl)c1C(=O)NCc1ccccc1 [compound 1486] | – | – | – | – | Insecticidal effect (Test Example 1), judged from mortality [1]: A (100); Insecticidal effect (Test Example 2), judged from mortality [2]: A (100)
